Results reported in article PMC9135303, “Interaction of fungal lipase with potential phytotherapeutics” (PLoS ONE, 2022).
Read-outs that look alike come from different tables or passages of the source.

Key:
Aspergillus niger lipase [1] = assay: Lipase inhibition assay with pNPP substrate; format: biochemical; conditions: for inhibition of lipase activity (in words): 0.5 mmoles/litre to 1.5 mmoles/litre, pNPP as substrate; for inhibition of lipase: 1.5 mmol/litre, para-nitrophenyl palmitate (pNPP) substrate, 37°C; for lipase activity: at about 1.5mmoles/litre
Method: Lipase assays were performed in a 96-well, clear, flat-bottomed plate with 200 μl reaction volume. pNPP was used as a substrate with a reaction buffer of 50 mM sodium phosphate, 5 mM sodium taurocholate, and 10% isopropanol at pH 8.0 [8, 9]. Lipase assays was performed in 200 μl reaction volume and substrate conversion was monitored with a Multiskan Go spectrophotometer (Thermo Scientific) at 410 nm. All assays were run at 37°C and reported results are the average of three replicates that were blank subtracted. The Lipase inhibitory activity was expressed as percentage inhibition calculated as: % Inhibition = [(Acontrol − Atest sample)/[…]]*100.
Significant inhibition was obtained at 0.5 mmoles/litre. For all three molecules indicating structural changes begin well below this concentration. According to all binding experiments have been performed in concentration range at 50 μM to 400 μM.

Aspergillus niger lipase [2] = assay: Fluorescence quenching of lipase (Stern-Volmer and double-logarithmic plots); format: binding; conditions: for binding affinity with Aspergillus niger lipase (order of magnitude): conclusion, unit not given; for ksv (Stern-Volmer constant): pH 7.4, ligand 50-400 μM; for kq (quenching rate constant): pH 7.4, τ0 10^-9 s
Method: (§1) Lipase and HSA were dialyzed against KCl- buffer (pH 7) for 24 hrs. Stock solution of lipase was prepared in 10 mM phosphate buffer at pH 7.4 to obtain a particular concentration. […] These samples were incubated at 298.0 K for about 24 hrs.
(§2) Fluorescence spectra were recorded on Hitachi F-4010 spectrofluorometer equipped with circulating water bath to maintain the temperature of the cell. The quartz cell of path length 1.0 cm and band slit of 5.0 nm were used for all experiments. The excitation wavelength was 280 nm for lipase and HSA. Emission spectra were recorded from 300–450 nm for lipase and HSA protein.
(§3) Herein, the fluorescence intensities were corrected for absorption of the exciting light and reabsorption of the emitted light to decrease the inner filter effect according to the following equation [10] (Chi & Liu, 2011): Fcorr=Fobs10^Aex+Aem/2, Where Fcorr and Fobs are corrected and experimentally measured fluorescence intensities, respectively. […] The fluorescence intensity utilized in this paper was the corrected intensity.
(§4) Emission fluorescence spectra were measured in the 300–450 nm interval, at a fixed excitation wavelength of 280 nm. Occurrence of an emission maximum at 344 nm in the fluorescence spectrum of lipase can be attributed to the presence of tryptophan residue of lipase. Even though the intrinsic fluorescence of pancreatic lipase is attributed to three amino acid residues, phenylalanine (Phe), tyrosine (Tyr), and tryptophan (Trp), the fluorescence of Phe and Tyr residues at this wavelength is negligible, so intrinsic fluorescence of the fungal enzyme is mainly due to Trp. […] Several earlier reports have shown similar fluorescence quenching of protein upon interaction with various drug molecules, without any shift in the emission maximum. The observed quenching in the protein fluorescence can be induced by a variety of molecular interactions such as rearrangement of molecules, ground-state complex formation, excited-state reactions, energy transfer and collisional quenching.
In order to gain insight into quenching mechanism involved in linalool-lipase, carvacrol- lipase and thymol- lipase interaction, or to gain further insight into the mechanism of tertiary structure we analysed the fluorescence quenching data using Stern–Volmer equation. […] S1A–S1C Fig and Table 1. gives ksv and kq values of Lipase—lin as 1.73 x 10^4 M^-1 and 1.73 x 10^13 M^-1s^-1, Lipase—car as 2.17 x 10^3 and 2.17 x 10^12, Lipase—thy as 1.76 x 10^4 and 1.76 x 10^13 respectively. […] Binding constant and number of binding sites were determined by plotting log (F0—F)/F versus log [ligand] according to equation: Log[(F0–F)/F=logKa+nlogligand] where Ka and n are binding constants and stoichiometry of association process respectively. Linear relationship is obtained from log(F− F0) / F versus log[ligand].

[3] = biological target: T1, Human Serum Albumin (HSA) (Homo sapiens, UniProt P02768); assay: Fluorescence quenching of HSA (Stern-Volmer and double-logarithmic plots); format: binding; conditions: for blue shift in the emission maximum of HSA: excitation 280nm, from 342 nm, throughout the titration
T1 construct: purchased Sigma-Aldrich
Method: as §1, §2, §3
(§5) The HSA were excited at 280nm and spectra were taken from 300nm to […].
The plot of F0/F against [linalool] at 298K is given as S3A Fig. The values of ksv and kq could be calculated from the slope of curves. The average lifetime of the fluorophore in the absence of the ligand as 6.38 × 10^−9 s for HSA [23]. […] Ka and ‘n’ were calculated from equation: Log[(F0–F)/F] = logKa + n log[linalool].

lipase = biological target: T2, lipase; assay: Intrinsic Trp fluorescence quenching of A. niger lipase (excitation 280 nm, ligand 50-400 uM, inner-filter corrected), 10 mM phosphate pH 7.4, samples incubated at 298 K for about 24 h; Ka from double-logarithmic plot.; format: binding
T2 construct: commercial (Sigma-Aldrich), dialyzed
Method: as §1, §2, §3
as §4, with “quenching. […]” for “quenching.”

HSA [4] = biological target: T3, HSA (Homo sapiens, UniProt P02768); assay: UV-Vis absorption spectroscopy of HSA; format: binding; set-up: purchased Sigma-Aldrich; conditions: HSA 0.4mg/ml, shifted from 278 nm, 298.15 K, pH 7.4
Description: UV-visible absorbance spectra were obtained using JASCO, V-560 spectrophotometer in the wavelength range 240 to 340 nm. The baseline was corrected for each spectrum.

[5] = biological target: T1, Human Serum Albumin (HSA); assay: Far-UV circular dichroism of HSA; conditions: 24 hours at 298.15 K, pH 7.4, native -17.76
Method: CD spectra were obtained over wavelength range of 200–250 nm on Jasco-1500 CD Spectrometer equipped with peltier type temperature controller. 0.1cm quartz cell were used to measure far UV CD spectrum. The concentration of protein used was 0.2 mg/ml (lipase) and 0.35 mg/ml (HSA). Each spectrum was scanned thrice and finally average of 3 was used to analyse the results.

HSA [6] = biological target: T3, HSA; assay: Intrinsic Trp214 fluorescence quenching of HSA (excitation 280 nm, ligand 50-400 uM, inner-filter corrected), 10 mM phosphate pH 7.4, 298 K; Ka from double-logarithmic plot.; format: binding; set-up: gene ALB; commercial (Sigma-Aldrich), dialyzed; conditions: read-out: Ka(M^-1) (converted)
Method: as §1, §2, §3, §5
The plot of F0/F against [linalool] at 298K is given as S3A Fig. The values of ksv and kq could be calculated from the slope of curves. […] Ka and ‘n’ were calculated from equation: Log[(F0–F)/F] = logKa + n log[linalool].

T3 sequence (P02768 25-609): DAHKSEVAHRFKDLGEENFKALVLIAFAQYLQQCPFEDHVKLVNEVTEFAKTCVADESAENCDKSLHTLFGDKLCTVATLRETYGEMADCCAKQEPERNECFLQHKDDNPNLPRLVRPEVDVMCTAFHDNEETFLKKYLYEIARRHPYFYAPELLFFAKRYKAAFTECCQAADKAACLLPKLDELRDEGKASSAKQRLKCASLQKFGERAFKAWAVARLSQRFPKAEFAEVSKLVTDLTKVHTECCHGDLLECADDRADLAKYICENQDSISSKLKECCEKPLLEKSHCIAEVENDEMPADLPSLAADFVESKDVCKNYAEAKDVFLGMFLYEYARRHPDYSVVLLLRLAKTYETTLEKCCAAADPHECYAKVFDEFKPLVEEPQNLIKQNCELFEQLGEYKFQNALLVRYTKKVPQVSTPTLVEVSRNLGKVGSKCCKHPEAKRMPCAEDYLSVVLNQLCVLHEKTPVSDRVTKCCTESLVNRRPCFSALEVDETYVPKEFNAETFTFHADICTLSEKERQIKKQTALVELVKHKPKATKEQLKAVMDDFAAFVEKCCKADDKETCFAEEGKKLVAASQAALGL
T1 sequence (P02768 25-609): as above

Row | SMILES | inhibition of lipase activity (in words) (Aspergillus niger lipase [1]) | inhibition of lipase (Aspergillus niger lipase [1]) | lipase activity (Aspergillus niger lipase [1]) | strength of binding to lipase (in words) (Aspergillus niger lipase [2]) | binding affinity with Aspergillus niger lipase (order of magnitude) (Aspergillus niger lipase [2]) | ksv (Stern-Volmer constant) (Aspergillus niger lipase [2]; lipase) | kq (quenching rate constant) (Aspergillus niger lipase [2]; lipase) | Ka (lipase) | maximum absorption peak position of ligand-HSA complex (HSA [4]) | Kd [3] | n (number of binding site) ([3]; HSA) | kq (quenching rate constant) ([3]; HSA, 298K) | ksv (Stern-Volmer quenching constant) ([3]; HSA, 298K, ligand 50-400 μM) | blue shift in the emission maximum of HSA [3] | MRE x 10^3 at 222nm (complex_400 μM) [5] | Kd (HSA [6]) | further results
1 | Cc1ccc(C(C)C)c(O)c1 [thymol] | markedly inhibited lipase activity | approximately 50% | approximately 50% | strong binders | ~10^9 | 17600 M⁻¹ | 1.76e+13 M⁻¹ s⁻¹ | 2.6e+09 M⁻¹ | 278.4 nm | – | – | – | – | – | – | – | kq (quenching rate constant) [3]: 3.21e+13 M⁻¹ s⁻¹; ksv (Stern-Volmer quenching constant) [3]: 32100 M⁻¹
2 | Cc1ccc(C(C)C)cc1O [carvacrol] | markedly inhibited lipase activity | approximately 50% | approximately 50% | strong binders | ~10^7 | 2170 M⁻¹ | 2.17e+12 M⁻¹ s⁻¹ | 4.6e+07 M⁻¹ | 278.2 nm | ~100 µM | 1.29 | 2.33e+12 M⁻¹ s⁻¹ | 2330 M⁻¹ | 1 nm | -24.91 | 45.5 µM | Ka (binding constant) (Aspergillus niger lipase [2]; lipase, pH 7.4, double-logarithmic plot): 4.66e+07 M⁻¹; Ka (binding constant) ([3]; HSA, double-logarithmic plot): 22000 M⁻¹
3 | C=CC(C)(O)CCC=C(C)C (stereo not shown) [linalool] | markedly inhibited lipase activity | approximately 50% | approximately 50% | weak binder | ~10^3 | 17300 M⁻¹ | 1.73e+13 M⁻¹ s⁻¹ | 5300 M⁻¹ | 278.5 nm | ~100 µM | 1.36 | 3.32e+12 M⁻¹ s⁻¹ | 3320 M⁻¹ | 2 nm | -23.13 | 29.4 µM | association constant / binding affinity with HSA (order of magnitude) ([3]; unit inferred): ~10000 M⁻¹
